# From patent publication US20250099420A1, “SMALL MOLECULE MODULATORS OF GPR139 COMPLEX” (University of Florida Research Foundation, Incorporated, priority 2022, published 2025)
# How the values were obtained:
# GPR139 [1] = biological target: T1, GPR139 (Homo sapiens, UniProt Q6DWJ6); assay: GPR139 Antagonist titration assay (calcium detection, HEK-GPR139 cells, vs EC80 of S-JNJ-63533054); conditions: for GPR139 Antagonist Activity Averaged Max % Response (±St. Dev.): activity relative to known control; for GPR139 Antagonist Activity Lipophilic Efficiency (logD): based on logD; for GPR139 Antagonist Activity Lipophilic Efficiency (logP): based on logP; for GPR139 Antagonist Activity Hill Slope: fitted dose-response curve
# T1 sequence (Q6DWJ6 1-353): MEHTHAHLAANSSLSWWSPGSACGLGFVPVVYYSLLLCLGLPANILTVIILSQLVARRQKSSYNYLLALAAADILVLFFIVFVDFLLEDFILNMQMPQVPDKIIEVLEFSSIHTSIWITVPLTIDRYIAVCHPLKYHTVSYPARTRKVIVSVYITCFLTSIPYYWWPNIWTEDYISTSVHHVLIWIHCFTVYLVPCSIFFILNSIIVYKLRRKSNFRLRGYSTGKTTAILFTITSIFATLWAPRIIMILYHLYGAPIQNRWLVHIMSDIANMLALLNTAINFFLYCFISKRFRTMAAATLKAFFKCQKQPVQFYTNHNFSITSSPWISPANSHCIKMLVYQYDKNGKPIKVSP
# Protocol: GPR activity was assessed using a calcium detection assay. GPR139 agonists stimulate an increase in intracellular calcium in HEK-GPR139 cells. Agonists increase the release of intracellular calcium, while antagonists decrease the release of intracellular calcium, as compared to an EC80 stimulation of the know agonist S-JNJ-63533054. The positive control for the agonist mode was cells treated with EC100 of known agonist S-JNJ-63533054. Negative control samples were treated with DMSO. The antagonist high control in cells was EC80 of S-JNJ-63533054+IC100 S-JNJ-3792165, while cells were treated with EC80 of S-JNJ-63533054+DMSO for the low control. Intracellular calcium was measured using Calcium 5.
# HEK cells were transfected the DNA encoding GPR139 and incubated for 24 hours. 3000 cells/well in 3 μL HEPES and 1% DMSO were seeded into 1536-well plates. 3 μL Calcium 5 was then added to each well and cells were incubated for 60 min. at 37° C. in 5% CO2 and 95% relative humidity. Cells were pretreated with 50 nL DMSO (5 min. at room temperature in the dark) to stabilize response and desensitize cells to DMSO. A 5 second basal read was recorded and compounds in 30 nL were added to the cells, followed by a 150 second read.
# B. Antagonist Mode: The “High Control” represented wells containing cells with GPR139+Antagonist IC100+Agonist EC80. “Low Control” represented wells containing cells with GPR139 with EC100 Agonist. “0% control” and sample field represented wells containing cells with GPR139 with EC80 Agonist with DMSO or compounds. The Z′ and S:B for this assay were calculated using the High Control and Low Control wells.
# The HEK parental counterscreen utilized the same cells but not transfected with the plasmid. Acetylcholine was used in place of GPR139 agonist as the control compound. The cells were plated overnight, similar to the HEK antagonist counterscreen protocol.
# The GPR139 Agonist and Antagonist titration assays employed the same reagents, protocols, and detection systems as the primary assays, but tested each as 10 point dose response starting at 676 nM concentration in triplicate with 1:3 dilutions. The HEK parental counterscreens utilized the same cells but not transfected with the plasmid. Acetylcholine was used in place of GPR139 agonist as the control compound. The cells were plated overnight, similar to the HEK antagonist counterscreen protocol.
# For each test compound, percent activation was plotted against compound concentration. A four parameter equation describing a sigmoidal dose-response curve was then fitted with adjustable baseline using Assay Explorer software (Symyx Technologies Inc.).
# GPR139 [2] = biological target: T1, GPR139; assay: GPR139 Agonist titration / agonist counterscreen assay (calcium detection, HEK-GPR139 cells); format: cell-based; set-up: expressed in transfected cells; host or cells: HEK Aequorin cells, Maxcyte transient transfection; conditions: for Averaged Max % Response (±St. Dev.): activity relative to known control
# Protocol: GPR activity was assessed using a calcium detection assay. […] Negative control samples were treated with DMSO. […] Intracellular calcium was measured using Calcium 5.
# parental HEK cells [3] = assay: HEK parental Antagonist Counterscreen Assay (non-transfected cells, acetylcholine control); format: cell-based; conditions: for EC50: Homo sapiens, HEK293, acetylcholine as control, scientific notation, molarity
# parental HEK cells [4] = assay: HEK parental Agonist Counterscreen Assay (non-transfected cells); format: cell-based; conditions: for Averaged Max % Response (±St. Dev.): activity relative to known control
# Text: The high control for the agonist counterscreen was Forskolin not acetylcholine.
# [5] = agonist counterscreen of the antagonists
# [6] = agonist counterscreen of the antagonists, scientific notation, molarity, read-out: GRP139 Agonist activity EC50
# [7] = GPR139 Agonist Activity, HEK-GPR139 cells, read-out: EC50
# [8] = Homo sapiens, HEK293, HEK Agonist Activity section of Table 4 (parental HEK counterscreen)
# [9] = GPR139 Agonist Activity, based on logD
# [10] = GPR139 Agonist Activity, based on logP
# [11] = GPR139 Agonist Activity, fitted dose-response curve
# [12] = GPR139 Agonist Activity, ligand efficiency
# [13] = GPR139 Agonist Activity, values printed in E-notation without unit, read-out: EC50
# [14] = Homo sapiens, HEK293, HEK Agonist Activity, parental non-transfected HEK cells
SMILES,EC50 (GPR139 [1]),GPR139 Antagonist Activity Ligand Efficiency (GPR139 [1]),GPR139 Antagonist Activity Averaged Max % Response (±St. Dev.) (GPR139 [1]),GPR139 Antagonist Activity Lipophilic Efficiency (logD) (GPR139 [1]),GPR139 Antagonist Activity Lipophilic Efficiency (logP) (GPR139 [1]),GPR139 Antagonist Activity Hill Slope (GPR139 [1]),GRP139 Agonist activity Averaged Max % Response (±St. Dev.) (GPR139 [2]; [5]),EC50 (GPR139 [2]; [6]),Averaged Max % Response (±St. Dev.) (GPR139 [2]; GPR139 Agonist Activity),Lipophilic Efficiency (logD) (parental HEK cells [4]; HEK Agonist Activity section),Lipophilic Efficiency (logP) (parental HEK cells [4]; HEK Agonist Activity section),Lipophilic Efficiency (logD) (GPR139 [2]; [9]),Lipophilic Efficiency (logP) (GPR139 [2]; [10]),Hill Slope (GPR139 [2]; [11]),Efficiency Ligand (GPR139 [2]; [12]),EC50 (GPR139 [2]; [13]),HEK antagonist activity Averaged Max % Response (±St. Dev.) (parental HEK cells [3]),EC50 (parental HEK cells [3]),Averaged Max % Response (±St. Dev.) (parental HEK cells [4]; HEK Agonist Activity section),EC50 (parental HEK cells [4]; [8]),other results
CC1=NN(Cc2ccc(Cl)cc2Cl)C(=O)C1 [SR-01000043246],3.9 µM,0.47,80.83 ± 4.99%,2.61,2.61,1.01,21.98 ± 2.69%,> 15.3 µM,–,–,–,–,–,–,–,–,6.06 ± 11.65%,> 15.3 µM,–,–,–
COc1ccc(OC)c(NC2=C(Cl)C(=O)N(c3ccccc3C)C2=O)c1 [SR-01000228964],2.9 µM,0.30,82.24 ± 3.16%,2.79,2.79,1.53,−2.6E+0 ± 5.18 ^ %,> 14.1 µM,–,–,–,–,–,–,–,–,24.51 ± 4.86%,> 14.1 µM,–,–,–
O=C(CCC(=O)OCc1ccc(Br)cc1)Nc1ccc(F)cc1 [SR-01000259336],3.7 µM,0.33,90.45 ± 2.75%,1.62,1.62,1.05,6.87 ± 7.17%,> 14.1 µM,–,–,–,–,–,–,–,–,26.21 ± 5.54%,> 14.1 µM,–,–,–
N#CCC(=O)c1ccccc1Oc1ccc(F)cc1 [SR-01000308363],5.9 µM,0.39,70.81 ± 7.08%,2.11,2.11,1.05,25.24 ± 7.47%,> 14.3 µM,–,–,–,–,–,–,–,–,14.98 ± 11.31%,> 14.3 µM,–,–,–
O=C(Cn1ccc2ccccc21)NC1CCN(Cc2ccccc2)CC1 [SR-01000925700],–,–,–,–,–,–,–,–,83.76 ± 7.63%,2.90,1.91,–,–,–,–,–,–,–,10.33 ± 2.07%,> 14.1 µM,Efficiency Ligand (GPR139 [2]; GPR139 Agonist Activity): 0.32; Hill Slope (GPR139 [2]; GPR139 Agonist Activity): 0.44; Lipophilic Efficiency (logD) (GPR139 [2]; GPR139 Agonist Activity): 4.08; Lipophilic Efficiency (logP) (GPR139 [2]; GPR139 Agonist Activity): 3.09; EC50 (GPR139 [2]; [7]): 0.931 µM
O=C(Cn1cnc2ccccc21)NCCCn1ccc2ccccc21 [SR-01000926263],–,–,–,–,–,–,–,–,84.49 ± 4.10%,2.29,2.29,4.34,4.34,1.10,0.39,0.127 µM,–,–,12.91 ± 4.81%,> 14.1 µM,–

# Further lines, with some results ahead:
EC50 (GPR139 [1]),GPR139 Antagonist Activity Ligand Efficiency (GPR139 [1]),GPR139 Antagonist Activity Averaged Max % Response (±St. Dev.) (GPR139 [1]),GPR139 Antagonist Activity Lipophilic Efficiency (logD) (GPR139 [1]),GPR139 Antagonist Activity Lipophilic Efficiency (logP) (GPR139 [1]),GPR139 Antagonist Activity Hill Slope (GPR139 [1]),GRP139 Agonist activity Averaged Max % Response (±St. Dev.) (GPR139 [2]; [5]),EC50 (GPR139 [2]; [6]),Averaged Max % Response (±St. Dev.) (GPR139 [2]; GPR139 Agonist Activity),Lipophilic Efficiency (logD) (parental HEK cells [4]; HEK Agonist Activity section),Lipophilic Efficiency (logP) (parental HEK cells [4]; HEK Agonist Activity section),Lipophilic Efficiency (logD) (GPR139 [2]; [9]),Lipophilic Efficiency (logP) (GPR139 [2]; [10]),Hill Slope (GPR139 [2]; [11]),Efficiency Ligand (GPR139 [2]; [12]),EC50 (GPR139 [2]; [13]),SMILES,HEK antagonist activity Averaged Max % Response (±St. Dev.) (parental HEK cells [3]),EC50 (parental HEK cells [3]),Averaged Max % Response (±St. Dev.) (parental HEK cells [4]; HEK Agonist Activity section),EC50 (parental HEK cells [4]; [8]),other results
–,–,–,–,–,–,–,–,89.57 ± 9.18%,2.07,2.07,–,–,–,–,–,O=C(Cn1ccc2ccccc21)NCCCC(=O)Nc1cccc2cccnc12 [SR-01000926510],–,–,9.24 ± 7.87%,> 14.1 µM,Efficiency Ligand (GPR139 [2]; GPR139 Agonist Activity): 0.30; Hill Slope (GPR139 [2]; GPR139 Agonist Activity): 0.38; Lipophilic Efficiency (logD) (GPR139 [2]; GPR139 Agonist Activity): 3.52; Lipophilic Efficiency (logP) (GPR139 [2]; GPR139 Agonist Activity): 3.52; EC50 (GPR139 [2]; [7]): 0.49 µM
–,–,–,–,–,–,–,–,100.27 ± 11.90%,–,–,5.36,5.36,0.74,0.37,0.0451 µM,O=C(Cn1ccc2ccccc21)NCCn1cnc(-c2ccccc2)cc1=O [SR-01000926956],–,–,–,–,Lipophilic Efficiency (logD) (parental HEK cells [4]; HEK Agonist Activity): 2.87; Lipophilic Efficiency (logP) (parental HEK cells [4]; HEK Agonist Activity): 2.87; Averaged Max % Response (±St. Dev.) (parental HEK cells [4]; HEK Agonist Activity): −3.24 ± 9.86%; EC50 (parental HEK cells [4]; [14]): > 14.1 µM
–,–,–,–,–,–,–,–,133.92 ± 16.41%,–,–,3.47,3.47,0.09,0.37,0.0196 µM,CC(C)C(CC(=O)Cc1cccc2ccccc12)C(=O)Nc1cccc(C#N)c1 (stereo not shown) [SR-05000022531],–,–,–,–,Lipophilic Efficiency (logD) (parental HEK cells [4]; HEK Agonist Activity): 0.61; Lipophilic Efficiency (logP) (parental HEK cells [4]; HEK Agonist Activity): 0.61; Averaged Max % Response (±St. Dev.) (parental HEK cells [4]; HEK Agonist Activity): 1.20 ± 11.04%; EC50 (parental HEK cells [4]; [14]): > 14.1 µM
–,–,–,–,–,–,–,–,135.48 ± 20.60%,1.43,−0.025,–,–,–,–,–,Cc1ccccc1CN1CCC(O)(c2ccc(Cl)c(C(F)(F)F)c2)CC1 [SR-05000022582],–,–,0.58 ± 18.59%,–,Efficiency Ligand (GPR139 [2]; GPR139 Agonist Activity): 0.31; Hill Slope (GPR139 [2]; GPR139 Agonist Activity): 0.53; Lipophilic Efficiency (logD) (GPR139 [2]; GPR139 Agonist Activity): 2.32; Lipophilic Efficiency (logP) (GPR139 [2]; GPR139 Agonist Activity): 0.87; EC50 (GPR139 [2]; [7]): 1.8 µM; EC50 (parental HEK cells [4]; HEK Agonist Activity section of Table 4 (parental HEK counterscreen)): > 14.1 µM
–,–,–,–,–,–,–,–,99.08 ± 8.57%,–,–,6.97,6.95,0.79,0.24,0.0138 µM,CC(C)C1CC(=O)[C@@H]2C[C@@H](CC2C(=O)CC2CCOc3ccccc3C2)C2C=CC(=C2)CCC(=O)[C@@H](Cc2ccccc2)NC1=O (stereo partly shown) [SR-05000709044],–,–,–,–,"Lipophilic Efficiency (logD) (parental HEK cells [4]; HEK Agonist Activity): 3.96; Lipophilic Efficiency (logP) (parental HEK cells [4]; HEK Agonist Activity): 3.94; Averaged Max % Response (±St. Dev.) (parental HEK cells [4]; HEK Agonist Activity): −2.44 ± 4.17%; EC50 (parental HEK cells [4]; HEK Agonist Activity, parental non-transfected HEK cells): > 14.1 µM"
–,–,–,–,–,–,–,–,88.97 ± 19.06%,−0.064,−0.064,1.77,1.77,0.76,0.35,0.205 µM,Cc1cccc(NC(=S)NNC(=O)CSCc2cccc3ccccc23)c1 [SR-07000002775],–,–,2.05 ± 12.71%,> 14.1 µM,–
–,–,–,–,–,–,–,–,87.84 ± 4.08%,−0.610,−0.614,–,–,–,–,–,CC(C)(C)c1cn2cccc(OCc3ccc(Cl)c(Cl)c3)c2n1 [SR-07000004609],–,–,−5.59 ± 4.81%,> 14.1 µM,Efficiency Ligand (GPR139 [2]; GPR139 Agonist Activity): 0.39; Hill Slope (GPR139 [2]; GPR139 Agonist Activity): 0.44; Lipophilic Efficiency (logD) (GPR139 [2]; GPR139 Agonist Activity): 0.98; Lipophilic Efficiency (logP) (GPR139 [2]; GPR139 Agonist Activity): 0.98; EC50 (GPR139 [2]; [7]): 0.358 µM
